Test system: citrated blood
Test: Measurement of whole blood clotting time (Sonoclot, ACT ONSET value)
Design: species or system human
Procedure: In a cuvette (NON-ACTIVATED CLOTTING TEST KIT), 18 μL of physiological saline was placed, and 14.8 μL of Calcicol was added thereto, followed by further adding 342 μL of the citrated blood to the resulting mixture. The mixture was then subjected to measurement using a Sonoclot coagulation & Platelet Function Analyzer (IMI Corporation), and the obtained ACT ONSET value was regarded as the whole blood clotting time.

CC1CNc2c(cccc2S(=O)(=O)N[C@@H](CCCNC(=N)N)C(=O)N2CC[C@@H](C)C[C@@H]2C(=O)O)C1 (mixture of isomers) [argatroban, (2R,4R)-4-methyl-1-((2S)-2-{[(3RS)-3-methyl-1,2,3,4-tetrahydroquinolin-8-yl]sulfonyl}amino-5-guanidinopentanoyl)piperidine-2-carboxylic acid]
whole blood clotting time (2 μM argatroban solution instead of physiological saline): 531 s | whole blood clotting time (10 μM argatroban solution instead of physiological saline): 746 s | whole blood clotting time (20 μM argatroban solution instead of physiological saline): 849 s

From patent US20140142613A1, “INSTRUMENT FOR CAPTURING FREE THROMBI” (Toray Industries, Inc., priority 2011, published 2014)
